Laboratory results reported in article PMC3653620 (Investigative radiology, 2012).
Entries after “also recorded” stand apart in the source; their conditions may differ. Where two headings read alike, the source gives them in different places. Where a SMILES comes first, the peptide text is derived from it. Bridges are numbered along the chain shown (N, C = ends). [ ]: non-standard residue; d: D form. The star is where a group is joined. X1 = O=C(O)CN1CCN(CC(=O)O)CCN(C(CCC(=O)NCC[C@H](NC(=O)CCC(C(=O)O)N2CCN(CC(=O)O)CCN(CC(=O)O)CCN(CC(=O)O)CC2)C(=O)NCc2ccc(CN*)cc2)C(=O)O)CCN(CC(=O)O)CC1; DOTAGA = O=C(O)CN1CCN(CC(=O)O)CCN(C(CCC(=O)*)C(=O)O)CCN(CC(=O)O)CC1; Tyr(3-Cl) = N[C@@H](Cc1ccc(O)c(Cl)c1)C(=O)O; Hyp = O=C(O)[C@@H]1C[C@@H](O)CN1; Dab = NCC[C@H](N)C(=O)O

Key:
[1] = tested on: tumor periphery (breast cancer xenograft, BT-20); assay: Contrast agent washout from tumor periphery, T1-weighted MRI at 9.4T; type: in vivo, nude mice; human adenocarcinoma BT-20 cell line; conditions: for retention in the tumor periphery / washout, in words: Gd-DTPA 200, EP-2104R or CLP 20 μmol/kg i.v.; for t1/2 in the tumor periphery: CNR vs time
[2] = tested on: tumor core (breast cancer xenograft, BT-20); assay: Contrast agent washout from tumor core, T1-weighted MRI at 9.4T; type: in vivo, nude mice; human adenocarcinoma BT-20 cell line
[3] = cited from earlier work; for relaxivity at 9.4T: per molecule
blood plasma proteins = conditions: cited from earlier work
[4] = cited from earlier work
[5] = tested on: thrombi in the heart chambers, arteries or veins; conditions: animal models and clinical trials; ref [32]-[43]; cited from earlier work

## CNC[C@H](O)[C@@H](O)[C@H](O)[C@H](O)CO.CNC[C@H](O)[C@@H](O)[C@H](O)[C@H](O)CO.O=C([O-])CN(CCN(CC(=O)[O-])CC(=O)O)CCN(CC(=O)[O-])CC(=O)O.[Gd+3] [Gd-DTPA, Gadopentetate dimeglumine]
[1]; 9.4T
  retention in the tumor periphery / washout, in words: not retained in the tumor periphery; also recorded: significantly faster washout than EP-2104R
[1]; all animals, p<0.05 for both
  half-life in tumor periphery compared with EP-2104R: significantly shorter
[1]; among all the mice, or across the tumor periphery ROI in some mice
  variability of washout from the tumor periphery: very similar among all the mice
[1]; animal 3, Gd-DTPA 200 μmol/kg then EP-2104R 20 μmol/kg i.v., 9.4T
  t1/2 in the tumor periphery: 27 min
[1]; animal 4, Gd-DTPA 200 μmol/kg then EP-2104R 20 μmol/kg i.v., 9.4T
  t1/2 in the tumor periphery: 38 min
[1]; animal 5, Gd-DTPA 200 μmol/kg then EP-2104R 20 μmol/kg i.v., 9.4T
  t1/2 in the tumor periphery: 26 min
[1]; animal 6, Gd-DTPA 200 μmol/kg then EP-2104R 20 μmol/kg i.v., 9.4T
  t1/2 in the tumor periphery: 23 min
[1]; animal 7, Gd-DTPA 200 μmol/kg then EP-2104R 20 μmol/kg i.v., 9.4T
  t1/2 in the tumor periphery: 38 min
[1]; animal 8, Gd-DTPA 200 μmol/kg then EP-2104R 20 μmol/kg i.v., 9.4T
  t1/2 in the tumor periphery: 41 min
[1]; animal 9, Gd-DTPA 200 μmol/kg then CLP 20 μmol/kg i.v., 9.4T
  t1/2 in the tumor periphery: 29 min
[1]; animal 10, Gd-DTPA 200 μmol/kg then CLP 20 μmol/kg i.v., 9.4T
  t1/2 in the tumor periphery: 20 min
[1]; animal 11, Gd-DTPA 200 μmol/kg then CLP 20 μmol/kg i.v., 9.4T
  t1/2 in the tumor periphery: 27 min
[2]; 3 mice, Gd-DTPA 200 μmol/kg followed by CLP 20 μmol/kg i.v., ±SEM, p=0.35
  t1/2, washout from the tumor core: 28 ± 5 min
[2]; 6 mice, Gd-DTPA 200 μmol/kg followed by EP-2104R 20 μmol/kg i.v., ±SEM, p=0.17
  t1/2, washout from the tumor core: 38 ± 9 min
[3]; 9.4T, ref [48],[49]
  relaxivity at 9.4T: 3.7 mM⁻¹ s⁻¹
Blood plasma proteins; ref [22],[33]
  affinity for blood plasma proteins: only very low affinity for blood plasma proteins
[4]; ref [22],[33]
  excretion: exclusive renal excretion

## CC[C@H](C)[C@H](NC(=O)[C@H](Cc1ccc(O)cc1)NC(=O)[C@@H]1CSSC[C@H](NC(=O)[C@@H](CCC(=O)O)NC(=O)[C@H](Cc2ccc(O)cc2)NC(=O)[C@H](CCNC(=O)CCC(C(=O)O)N2CCN(CC(=O)O)CCN(CC(=O)O)CCN(CC(=O)O)CC2)NC(=O)CCC(C(=O)O)N2CCN(CC(=O)O)CCN(CC(=O)O)CCN(CC(=O)O)CC2)C(=O)N2C[C@H](O)C[C@H]2C(=O)N[C@@H](Cc2ccc(O)c(Cl)c2)C(=O)NCC(=O)N[C@@H](CC(C)C)C(=O)N1)C(=O)N[C@@H](CCC(N)=O)C(=O)NCc1ccc(CNC(=O)[C@H](CCNC(=O)CCC(C(=O)O)N2CCN(CC(=O)O)CCN(CC(=O)O)CCN(CC(=O)O)CC2)NC(=O)CCC(C(=O)O)N2CCN(CC(=O)O)CCN(CC(=O)O)CCN(CC(=O)O)CC2)cc1 (stereo partly drawn) [EP-2104R] ({DOTAGA}-[Dab](DOTAGA)Y[dE]C[Hyp][Tyr(3-Cl)]GLCYIQ-X1; disulfide 4-9; N-terminus and C-terminus assumed)
[1]; 9.4T
  retention in the tumor periphery / washout, in words: stays in the tumor periphery much longer than Gd-DTPA or CLP; also recorded: significantly longer retained in the tumor periphery; also recorded: retained significantly longer in the tumor periphery than either Gd-DTPA or CLP
[1]; after EP-2104R injection, 20 μmol/kg i.v., FLASH images, 9.4T
  duration of persistent enhancement of the tumor periphery: ≥ 90 min
[1]; in vivo
  variability of washout from the tumor periphery: varied several fold across this ROI
  washout from the tumor periphery, % slower than Gd-DTPA: 190±75%
  washout from the tumor periphery, fold slower than CLP: 5 fold
[1]; in vivo, iv
  Half-life in the tumor periphery (mean ± SEM): 103 ± 18 min
  t1/2 in the tumor periphery, Mean (St Dev): 103 (53) min
[2]; EP-2104R 20 μmol/kg i.v., transient, tumor core and periphery, 9.4T
  enhancement of tumor: transiently enhanced both the tumor core and periphery
[2]; in vivo
  washout from the tumor core, % slower than Gd-DTPA: 20%
[2]; mouse, in vivo, iv
  t1/2, washout from the tumor core: 45 ± 9 min
[3]; 9.4T, per Gd, ref [48],[49]
  relaxivity at 9.4T, per Gd: 6.4 mM⁻¹ s⁻¹
[3]; 9.4T, ref [48],[49]
  relaxivity at 9.4T: 25.6 mM⁻¹ s⁻¹
[3]; fibrin-bound, 9.4T vs clinical field strengths, ref [22],[48]
  relaxivity of fibrin-bound probe at 9.4T vs clinical field strengths: much lower at this field compared to clinical field strengths
Blood plasma proteins
  affinity for blood plasma proteins: only very low affinity for blood plasma proteins
[4]; in vivo
  excretion: exclusive renal excretion
[5]
  identification of thrombi: efficacious in identifying thrombi in the heart chambers, arteries or veins
